The values that follow come from patent publication US20250387359A1, “COMPOUNDS AND METHODS FOR THE TREATMENT OF PARASITIC INFECTIONS” (THE BOARD OF TRUSTEES OF THE UNIVERSITY OF ILLINOIS, priority 2019, published 2025).

Structures are written as SMILES. Where two headings read alike, the source gives them in different places.

Series [1] concerns the target T1, recombinant CpLDH protein (Cryptosporidium parvum, UniProt Q9GT92, F198L/K295E/R251K). Nature of the series: CpLDH enzyme kinetics on substrates and co-factors. It counts as biochemical. To be noted: for Km: pyruvate/NADH: reduction of pyruvate to lactate, lactate/NAD+: oxidation of lactate to pyruvate, 25° C. The procedure: (§1) Biochemical assays. The coding sequence of CpLDH was cloned from cDNA prepared from the AUCP-1 isolate of C. parvum, and the His-tagged CpLDH recombinant protein expressed in Escherichia coli, and purified in native form essentially as previously described (Int. J. Parasitol. 2017; 47(13), 867-874). Briefly, cDNA was prepared from total RNA extracted from the AUCP-1 isolate of C. parvum, and the coding sequencing of CpLDH (Genebank accession number AF274310.1) was PCR-amplified from the cDNA using a primer pair with a XhoI restriction site and a BamHI site. The PCR amplicon was cloned at the XhoI/BamHI site of the pET15b expression vector in-frame with the hexahistidine (His-tag) at the N-terminal and sequenced to confirm identity. The recombinant expression vector was transformed into protein expression E. coli BL21-CodonPlus-DE3-RIL (Stratagene). Transformed E. coli was cultured at 37° C. in Luria broth medium (supplemented with 100 μg/ml ampicillin and 34 μg/ml chloramphenicol) to an A600 of 0.8 followed by addition of 1 mM isopropyl-β-d-thiogalactopyranoside to induce protein expression. The expression E. coli was harvested and lysed under native conditions by sonicating in lysis buffer (50 mM NaH2PO4, 300 mM NaCl, 10 mM Imidazole, pH 8.0) containing a 1× EDTA-free protease inhibitor cocktail, 600 units benzonase and 30 kU lysozyme (EMD Millipore). The lysate was clarified by centrifugation and the His-tagged recombinant protein purified under native conditions by nickel-affinity chromatography according to the manufacturer's instructions (Novagen). The wash buffer used contained 50 mM NaH2PO4, 300 mM NaCl and 20 mM Imidazole, pH 8.0, while the elution buffer was composed of 50 mM NaH2PO4, 300 mM NaCl, 250 mM Imidazole, pH 8.0. The eluate was dialyzed using a buffer containing 5 mM Hepes-KOH (pH 7.8) and 0.5 mM DTT. The purity of the recombinant protein was determined by SDS/PAGE, and the concentration measured using a Qubit 3.0 fluorometer (Life technologies). […] On the other hand, the catalytic activity of CpLDH recombinant protein for the oxidation of lactate to pyruvate was determined by measuring the change in optical density of a 100 μl reaction mixture containing 100 mM lactate, 1 mM NAD^+, 100 mM Tris, pH 9.2, with varying concentrations of CpLDH recombinant protein at 25° C. […] In all assays, reaction mixtures without recombinant CpLDH protein were included as negative controls. All assays were performed in triplicate and repeated at least thrice. The change in optical density was measured every 15 seconds for a total of 2 minutes using a Spectra Max 384 Plus plate reader (Molecular Devices) at a wavelength of 340 nm.

The target in series [2] is T1, recombinant CpLDH protein. To be noted: reported by Zhang et al., PLoS Pathog. 2015; cited from earlier work.
In series [3] the test system is HCT-8 cells. In words: Compound cytotoxicity assay (WST-1) in HCT-8 cells. Type of series: cell-based, human. The procedure:
Compound cytotoxicity assay. […] A colorimetric assay using the cell proliferation reagent WST-1 (Roche, USA) for the quantification of cell viability was performed. […] When the cells were confluent, the old medium was replaced with fresh medium with or without varying concentrations of chemical compound. After 24 h of culture, 10 μl of the cell proliferation reagent WST-1, (for quantification of cell viability) was added to each well, mixed and the plates incubated for 1 h at 37 C with 5% CO2 in the dark. […] Molecular Devices, USA).
(Formazan colour is commonly taken as a measure of viable cells.)

Series [4] has as its target T1, recombinant CpLDH protein. In words: biochemical. To be noted: 20 μM compound; 10 mM pyruvate, 1 mM NADH. It counts as biochemical. Here is the method:
as §1
Screening compounds for inhibitory activity against CpLDH. The chemical compounds were obtained from the National Cancer Institute/Developmental Therapeutics Program Open Chemical Repository. They consisted of a diverse set of compounds (n=27) reported previously (Int J Parasitol Drugs Drug Resist. 2016; 6(1), 44-53), and a Mechanistic Set IV compounds (n=800). The compounds were reconstituted in dimethyl sulfoxide (DMSO) as stock solutions. Just before use, aliquots of the stock solutions were diluted in sterile distilled water to generate working solutions, such that the final amount of DMSO added to the reaction mixtures was less than 1% (V/V). The compounds were tested for their inhibitory effect against the enzymatic activity of recombinant His-tagged CpLDH for catalyzing the reduction of pyruvate to lactate. […] Control reactions without recombinant CpLDH protein were included. Reactions were performed in triplicate and repeated at least thrice. The change in optical density was measured every 15 seconds for a total of 2 minutes using a Spectra Max 384 Plus plate reader (Molecular Devices) at a wavelength of 340 nm.

The mark [5] stands for this setting: pyruvate/NADH: reduction, lactate/NAD+: oxidation.
[6] abbreviates: HCT-8 cells, 24 h, WST-1, read-out: CYTOTOXICITY IC50.

T1 sequence (Q9GT92 whole entry F198L/K295E/R251K): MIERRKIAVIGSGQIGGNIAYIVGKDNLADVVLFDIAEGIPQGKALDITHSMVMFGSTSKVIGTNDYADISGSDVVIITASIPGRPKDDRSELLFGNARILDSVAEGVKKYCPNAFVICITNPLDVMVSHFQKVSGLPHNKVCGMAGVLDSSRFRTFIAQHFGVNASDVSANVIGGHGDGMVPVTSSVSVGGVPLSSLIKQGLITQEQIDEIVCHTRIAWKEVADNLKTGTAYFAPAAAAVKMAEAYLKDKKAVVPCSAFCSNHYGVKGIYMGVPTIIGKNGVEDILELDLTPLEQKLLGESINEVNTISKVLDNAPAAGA

Usually Km stands for the substrate concentration at which the rate is half of its maximum. Turning to `CC(O)C(=O)O` (centres unmarked) [Lactate, lactate], the Km in series [1] (read-out: Km) stood at 39600 µM. Also, in series [1] (setting [5]), the Kcat was 0.07 s⁻¹ and the Vmax amounted to 0.04 nmol⁻¹ µg⁻¹ min⁻¹. Moreover, in series [2], the Kcat result is given as “(0.66)* s^−1”, the Michaelis-Menten constant (Km) was 10800 µM and the Vmax result was “(0.53)* nmol^−1 · μg^−1 · min^−1”.

For `NC(=O)C1=CN([C@@H]2O[C@H](COP(=O)(O)OP(=O)(O)OC[C@H]3O[C@@H](n4cnc5c(N)ncnc54)[C@H](O)[C@@H]3O)[C@@H](O)[C@H]2O)C=CC1` [NADH], the Km in series [1] (read-out: Km) is 734 µM; in series [2], 92 µM. In addition, the Vmax was 6.29 nmol⁻¹ µg⁻¹ min⁻¹ in series [1] (setting [5]) and “(9.33)* nmol^−1 · μg^−1 · min^−1” in series [2]. Besides, in series [2], the Kcat entry is on record as “(11.70)* s^−1”.

What is called IC50 is the midpoint of a concentration-inhibition curve. With `CN(C)C(=S)SSC(=S)N(C)C` [NSC1771], the concentration for half-maximal inhibition (IC50) in series [3] (setting [6]) came to 110 µM. For the same compound, the “effect on catalytic activity of recombinant CpLDH” value (“effect on catalytic activity” for short) in series [4] was “significant (P<0.05) inhibitory effect”.

In series [3], `CC1=C(CCC(=O)O)c2cc3nc(cc4[nH]c(cc4C)cc4[nH]c(cc1n2)cc4C)C(C)=C3CCC(=O)O` [NSC18298] gave a 50% inhibitory concentration (IC50) of 81.9 µM. Besides, the “effect on catalytic activity” value in series [4] is “significant (P<0.05) inhibitory effect”.

As to `O=C(O)[C@@H]1[C@H](C(=O)O)[C@]2(Cl)C(Cl)=C(Cl)[C@@]1(Cl)C2(Cl)Cl` [NSC22225], the midpoint of inhibition in series [3], the IC50, lay at 96.8 µM. The “effect on catalytic activity” value in series [4] is “significantly (P<0.05) inhibited”.

`O=c1oc2cc(O)ccc2c2oc3cc(O)ccc3c12` [NSC22842] had a half-inhibitory concentration (IC50) in series [3] of 83.5 µM. Besides, in series [4], the “effect on catalytic activity” value is “significant (P<0.05) inhibitory effect”.

In series [3], `CC(=O)Nc1ccc(-c2nc3ccccc3s2)cc1` [NSC33006] gave an IC50 of 87.3 µM. For the same compound, in series [4], the “effect on catalytic activity” value is “significant (P<0.05) inhibitory effect”.

With `O=S(=O)([O-])c1cc(N=Nc2cc(S(=O)(=O)[O-])c3ccccc3c2O)ccc1/C=C/c1ccc(N=Nc2cc(S(=O)(=O)[O-])c3ccccc3c2O)cc1S(=O)(=O)[O-].[Na+].[Na+].[Na+].[Na+]` [NSC34931], in series [3], the IC50 is 71.1 µM. Further, the “effect on catalytic activity” value in series [4] is given as “significant (P<0.05) inhibitory effect”.

Compound `O=S(=O)(O)c1cc(N=[N+]([O-])c2cc(S(=O)(=O)O)c3ccccc3c2)cc2ccccc12` [NSC37031] displayed a concentration for half-maximal inhibition (IC50) in series [3] of 333 µM. The “effect on catalytic activity” value in series [4] is given as “significantly (P<0.05) inhibited”.

In turn, `[Cl][Cd][Cl]` [NSC51148] registered an IC50 in series [3] of 39.6 µM. Further, in series [4], the “effect on catalytic activity” value was “significant (P<0.05) inhibitory effect”.

As for `Cc1cc2c(C(C)C)c(O)c(O)c(C=O)c2c(O)c1-c1c(C)cc2c(C(C)C)c(O)c(O)c(C=O)c2c1O` [NSC56817], the IC50 in series [3] (setting [6]) was 64.2 µM. Also, the “effect on catalytic activity” value in series [4] is on record as “significant (P<0.05) inhibitory effect”.

As for `N#CCCN(CCC#N)Cc1cc(O)c(CN(CCC#N)CCC#N)cc1O` [NSC70925], half-maximal inhibition in series [3] (IC50) required 142 µM. For the same compound, in series [4], the “effect on catalytic activity” value was “significant (P<0.05) inhibitory effect”.

`Cc1cc2c(c3oc(C4(C)OC4C4OC4C)cc(=O)c13)C(=O)c1c(O)c(C3CC(C)(N(C)C)C(O)C(C)O3)cc(C3CC(N(C)C)C(O)C(C)O3)c1C2=O` (centres unmarked) [NSC70929]: half-maximal inhibition in series [3] (IC50) required 181 µM. The “effect on catalytic activity” value in series [4] was “significant (P<0.05) inhibitory effect”.

With `Cc1ccc2c(sc(-c3ccc4c(c3)sc(-c3ccc(N(C)C)cc3)[n+]4C)[n+]2C)c1S(=O)(=O)[O-].[Cl-]` [NSC71948], 106 µM corresponded to half-maximal inhibition in series [3] (IC50). In series [4], the “effect on catalytic activity” value is recorded as “significant (P<0.05) inhibitory effect”.

In series [3], `O=[N+]([O-])c1ccc2c(N=Nc3c(O)ccc4ccccc34)c(O)cc(S(=O)(=O)[O-])c2c1.[Na+]` [NSC73413] had an IC50 of 220 µM. Also, the “effect on catalytic activity” value in series [4] is reported as “significant (P<0.05) inhibitory effect”.

Turning to `Cc1cc(N(CCCl)CCCl)ccc1/C=N/NC(=O)Cc1cc(=O)oc2cc(O)ccc12` [NSC79688], the IC50 in series [3] (setting [6]) was 145 µM. Also, in series [4], the “effect on catalytic activity” value is on record as “significant (P<0.05) inhibitory effect”.

Compound `O=C(CC(=O)C(F)(F)F)c1csc2ccccc12` [NSC80396] had an IC50 in series [3] of 91.9 µM.

In the case of `CCOC(C)C(C=NNC(N)=S)=NNC(N)=S` (centres unmarked) [NSC82116], the IC50 in series [3] was 118 µM. Besides, in series [4], the “effect on catalytic activity” value is given as “significant (P<0.05) inhibitory effect”.

For `O=[N+]([O-])c1cccc2c(N=Nc3ccc4ccccc4c3O)c(O)cc(S(=O)(=O)O)c12.[Na+]` [NSC85561], 103 µM corresponded to half-maximal inhibition in series [3] (IC50). Besides, the “effect on catalytic activity” value in series [4] is on record as “significant (P<0.05) inhibitory effect”.

In series [3], `CCOC(=O)Cc1c(C)c2cc(C(=O)c3ccccc3)c(O)cc2oc1=O` [NSC115538] registered a half-inhibitory concentration (IC50) of 158 µM.

In series [3], `COc1ccc(/C=C/C(=O)Oc2cc(O)cc(O)c2)cc1` [NSC175296] registered an IC50 of 156 µM.

In series [3], `O=C([CH-]C(=O)C(F)(F)F)c1ccccc1.O=C([CH-]C(=O)C(F)(F)F)c1ccccc1.O=C([CH-]C(=O)C(F)(F)F)c1ccccc1.O=C([CH-]C(=O)C(F)(F)F)c1ccccc1.[Eu+3].c1ccncc1` [NSC253995] yielded a concentration for half-maximal inhibition (IC50) of 83 µM. Besides, the “effect on catalytic activity” value in series [4] is reported as “significant (P<0.05) inhibitory effect”.

Consider `CC(O)CCC(=O)c1ccoc1` (centres unmarked) [NSC349438], for which, in series [3], the IC50 amounted to 93.9 µM. Moreover, in series [4], the “effect on catalytic activity” value is reported as “significant (P<0.05) inhibitory effect”.

Compound `O=Cc1cc([N+](=O)[O-])no1` [NSC626433] yielded an IC50 in series [3] of 265 µM. In addition, the “effect on catalytic activity” value in series [4] is listed as “significant (P<0.05) inhibitory effect”.

In turn, `O=S(=O)(O)c1cc(N=Nc2cc(S(=O)(=O)O)c3cccnc3c2O)ccc1/C=C/c1ccc(N=Nc2cc(S(=O)(=O)O)c3cccnc3c2O)cc1S(=O)(=O)O` [NSC638352] yielded a half-inhibitory concentration (IC50) in series [3] of 116 µM. Further, in series [4], the “effect on catalytic activity” value is listed as “significant (P<0.05) inhibitory effect”.

Compound `O=C1/C(=C/c2ccccc2)CN(C(=O)/C=C/c2ccccc2)C/C1=C\c1ccccc1` [NSC638634] had an IC50 in series [3] of 157 µM.

For the compound `COc1ccc(CCN(C)CCCC(C#N)(c2ccc(OC)c(OC)c2)C(C)C)cc1OC.Cl` (centres unmarked) [NSC657799], the “effect on catalytic activity” value in series [4] is on record as “significant (P<0.05) inhibitory effect”.

The compound `COC(=O)C1=C(C(=O)OC)SC2(S1)C(C(=O)OC)=C(C(=O)OC)Sc1c2ssc1=O` [NSC686349] came in with a 50% inhibitory concentration (IC50) in series [3] of 283 µM. In addition, the “effect on catalytic activity” value in series [4] is recorded as “significant (P<0.05) inhibitory effect”.

`CC(=O)C(=O)O` [Pyruvate, pyruvate]: the Km in series [1] worked out at 731 µM.
